From patent US12246095B2, “Oral dosage forms comprising a hops extract” (The New Zealand Institute for Plant and Food Research …, priority 2018, dated 2025)
In brackets after ≈: the same amount, converted by molar mass.

Test system: Hutu80 enteroendocrine cells
Assay: Intracellular calcium in Hutu80 enteroendocrine cells as marker of Tas2R activation
Format: cell-based, human
Conditions: for EC 50: Hutu-80, change in intracellular calcium at 5 min, doses 200 to 0.2 μM, Pacific Gem extract and purified acids
Method: The capacity for hops extracts to activate bitter taste receptors was assessed using intracellular calcium concentrations [Ca2+]i as a marker of both Tas2R activation and appetite suppressing hormone release. A screening assay was carried out to compare the effects of high alpha acid and low alpha acid hops extracts on intracellular calcium in Hutu80 enteroendocrine cells. The acid composition of the high alpha acid hops was alpha acid (13.9%), beta acid (7.4%). The acid composition of the low alpha acid hops was alpha acid (2.7%) beta acid (5.0%).
An EC50 dose response showing the relative change in intracellular calcium in Hutu80 enteroendocrine cells at 5 min following the addition of either a high alpha acid (Pacific Gem, 13.9%) or low alpha acid (Wai-iti, 2.7%) hops extract is shown in FIG. 1 and Table 1.
Activation of human TAS2Rs receptors was measured by monitoring variations in intracellular Ca^2+ concentrations ([Ca^2+]i) using a Flurostar Omega (BMG LABTECH, Germany) (excitation 485 nm/emission 520 nm).
Hutu-80 cells (Cat #HTB-40, ATCC Manassas, Virginia) were seeded in supplemented MEM (Cat #11095-080, Thermo Fisher, Walthan, Massachusetts) into Poly-Lysin-coated 96-well black wall, clear bottom plates (Cat #356640, Corning Inc. New York) at a density of 3.5×10^5 cells/ml, 100 μl/wel, cultured overnight and then loaded with the Ca^2+-sensitive fluorescent dye Fluo 4-AM (Cat #F14201, Thermo Fisher, Walthan, Massachusetts), following suppliers guidelines. […]
Compounds to test were prepared in DMSO (Cat #D8418, Sigma, St. Louis, Missouri) and transferred onto the cells immediately prior to commencing of the assay measurements. To obtain a baseline, fluorescence signals (excitation 485 nm/emission 520 nm) were measured immediately before the addition of compounds on the cells.
The change in intracellular calcium in Hutu80 enteroendocrine cells was measured at 5 min following the addition of purified hops acids at doses of 200, 63.2, 20, 6.32, 2, 0.632, 0.2 and 0 μM.

| SMILES | stimulating bitter taste receptor (Tas2R) signalling in human enteroendocrine cells (Hutu80, intracellular calcium) | EC 50 |
| --- | --- | --- |
| CC(C)=CCC1=C(O)C(O)(CC=C(C)C)C(=O)C(C(=O)C(C)C)=C1O (stereo not drawn) [Cohumulone, cohumulone] | activity at the lowest concentration | 1.153 mg/L (≈ 3.31 µM) |
| CC(C)=CCC1=C(O)C(C(=O)C(C)C)=C(O)C(CC=C(C)C)(CC=C(C)C)C1=O [Colupulone, colupulone] | – | 12.72 mg/L (≈ 31.8 µM) |
